Experimental data as given in article PMC10053710, “Influence of Lipidation Pattern of the KR12 Fragment of Peptide LL-37 on Its Antibacterial and Hemolytic Activities” (International Journal of Molecular Sciences, 2023).
Values after ≈ are worked out from the molar mass of the structure shown. Values joined by “and” are separate entries in the source; they are usually repeats but may differ in a detail not shown here. Identical values can stand only once. Like-named read-outs stand apart in the source and are kept apart here. Where a SMILES comes first, the peptide text is derived from it. The star is where a group is joined. Hydrocinnamoyl = O=C(CCc1ccccc1)*; X1 = CCCCCCC(CCCC)C(=O)*; X4 = O=C(/C=C/c1ccccc1)*; PhAc = O=C(Cc1ccccc1)*; X3 = CCCCC(CC)C(=O)*; Bz = O=C(c1ccccc1)*

Tests used:
[1] = system: Enterococcus faecium ATCC 700221; type: cell-based
Procedure: (§1) Tests of the antibacterial activity were carried out as we just described. Briefly, for assays, the following strains of ESKAPE bacteria were chosen: Acinetobacter baumannii ATCC BAA-1605, Enterococcus faecium ATCC 700221, Klebsiella aerogenes ATCC 13048 (formerly Enterobacter aerogenes), Klebsiella pneumoniae ATCC 700603, and Pseudomonas aeruginosa ATCC 9027. Moreover, the reference strains of Staphylococcus aureus were used: S. aureus ATCC 25923, S. aureus ATCC 6538, S. aureus ATCC 33591 (MRSA), S. aureus ATCC 9144, and S. aureus ATCC 12598. Before experiments, all the strains were stored at −80 °C in Roti®-Store cryo vials (Carl Roth GmbH, Karlsruhe, Germany). To evaluate the activity of the compounds, bacteria were transferred into fresh Mueller–Hinton medium (Becton Dickinson, Warszawa, Poland) and incubated for 24 h at 37 °C. In the next step, bacterial inoculums were seeded on Mueller–Hinton agar plates (BioMaxima SA, Lublin, Poland) and incubated again for 24 h. The MIC values were determined using the broth microdilution method according to the Clinical and Laboratory Standards Institute Protocol. The initial inoculums of bacteria (0.5 × 10^5 colony forming units (CFU)/mL) prepared in Mueller–Hinton broth were exposed to the ranging concentrations of peptides (1–512 µg/mL). The experiments were conducted on 96-well microtiter plates, with a final volume of 100 µL. The inoculum densities were checked spectrophotometrically (Multiskan™ GO Microplate Spectrophotometer, Thermo Scientific, Waltham, MA, USA) at 600 nm. The results were read after incubation for 18 h at 37 °C. The MIC values were the lowest concentration at which a visible growth of microorganisms was inhibited. All experiments were conducted in triplicate. Moreover, positive (growth) and negative (sterility) controls were included.

[2] = system: Pseudomonas aeruginosa ATCC 9027; type: cell-based
Procedure: as §1

[3] = system: Klebsiella pneumoniae ATCC 700603; type: cell-based
Procedure: as §1

[4] = system: Klebsiella aerogenes ATCC 13048; type: cell-based
Procedure: as §1

[5] = system: human red blood cells (hRBCs); assay: Hemolysis assay; conditions: 4% (v/v) erythrocytes in PBS, peptides 1–512 µg/mL, 1 h at 37 °C, hemoglobin at 540 nm
Procedure: To facilitate a comparison of hemolytic activity between the analogs, MHC5 values were determined. MHC5 is the minimum hemolytic concentration of the compounds that caused the 5% hemolysis of hRBCs.
Briefly, the fresh hRBCs with EDTA as anticoagulant were rinsed three times with PBS through centrifugation at 800× g for 10 min and resuspended in PBS. The serial dilution of peptides (1–512 µg/mL) was prepared in PBS on 96-well plates. Then, the stock RBCs solution was added to the plates to reach a final volume of 100 µL with a 4% concentration of erythrocytes (v/v). The control wells for 0 (RBCs in PBS) and 100% (RBCs in 1% Triton-X 100) hemolysis were also prepared. Then, the plates were incubated for 1 h at 37 °C and centrifuged at 800× g for 10 min at 4 °C (Sorvall ST 16R Centrifuge, Thermo Scientific, Waltham, MA, USA). After centrifugation, the supernatant was carefully transferred to new microtiter plates and the release of hemoglobin was measured at 540 nm (Multiskan™ GO Microplate Spectrophotometer, Thermo Scientific, Waltham, MA, USA). The percentage of hemolysis was calculated based on wells with 100% hemolysis.

S. aureus ATCC 25923 = type: cell-based, Staphylococcus aureus
Procedure: as §1

S. aureus ATCC 9144 = type: cell-based, Staphylococcus aureus
Procedure: as §1

S. aureus ATCC 6538 = type: cell-based, Staphylococcus aureus
Procedure: as §1

[6] = system: S. aureus ATCC 33591 (MRSA); type: cell-based, Staphylococcus aureus
Procedure: as §1

S. aureus ATCC 12598 = type: cell-based, Staphylococcus aureus
Procedure: as §1

[7] = fresh batch of blood (footnote a)
[8] = Mueller–Hinton broth, 0.5 × 10^5 CFU/mL, peptides 1–512 µg/mL, 18 h at 37 °C, triplicate
[9] = 100% = 1% Triton-X 100, ≥ means less than 5% hemolysis up to 512 µg/mL
[10] = MRSA, Mueller–Hinton broth, 0.5 × 10^5 CFU/mL, peptides 1–512 µg/mL, 18 h at 37 °C, triplicate

SMILES | MIC E. faecium ([1]; ATCC 700221, 18 h) [µg/mL] | MIC P. aeruginosa ([2]; ATCC 9027, 18 h) [µg/mL] | MIC K. pneumoniae ([3]; ATCC 700603, 18 h) [µg/mL] | MIC K. aerogenes ([4]; ATCC 13048, 18 h) [µg/mL] | MHC5 (minimum hemolytic concentration causing 5% hemolysis of hRBCs) [5, 7] | MIC A. baumannii (18 h) [µg/mL] | MIC S. aureus 25923 (S. aureus ATCC 25923; ATCC 25923, 18 h) [µg/mL] | MIC S. aureus 9144 (S. aureus ATCC 9144; ATCC 9144, 18 h) [µg/mL] | MIC S. aureus 6538 (S. aureus ATCC 6538; ATCC 6538, 18 h) [µg/mL] | MIC S. aureus 33591 ([6]; ATCC 33591, 18 h) [µg/mL] | MIC S. aureus 12598 (S. aureus ATCC 12598; ATCC 12598, 18 h) [µg/mL] | MIC E. faecium [1, 8] [µg/mL] | MIC P. aeruginosa [2, 8] [µg/mL] | MIC K. pneumoniae [3, 8] [µg/mL] | MIC K. aerogenes [4, 8] [µg/mL] | MHC5 (minimum hemolytic concentration causing 5% hemolysis of hRBCs) [5, 9] [µg/mL] | MIC A. baumannii [8] [µg/mL] | MIC S. aureus 25923 (S. aureus ATCC 25923; [8]) [µg/mL] | MIC S. aureus 9144 (S. aureus ATCC 9144; [8]) [µg/mL] | MIC S. aureus 6538 (S. aureus ATCC 6538; [8]) [µg/mL] | further results
CCCCCCC(CCCC)C(=O)N[C@@H](CCCCN)C(=O)N[C@@H](CCCNC(=N)N)C(=O)N[C@H](C(=O)N[C@H](C(=O)N[C@@H](CCC(N)=O)C(=O)N[C@@H](CCCNC(=N)N)C(=O)N[C@H](C(=O)N[C@@H](CCCCN)C(=O)N[C@@H](CC(=O)O)C(=O)N[C@@H](Cc1ccccc1)C(=O)N[C@@H](CC(C)C)C(=O)N[C@@H](CCCNC(=N)N)C(N)=O)[C@@H](C)CC)C(C)C)[C@@H](C)CC (stereo partly drawn) [XIII, 2-Buthyloctanoic acid-KR12-NH2] (X1-KRIVQRIKDFLR-NH2) | 2 (≈ 1.14 µM) | 32 (≈ 18.3 µM) | 8 (≈ 4.56 µM) | 8 (≈ 4.56 µM) | 8 µg/mL and 16 ^a µg/mL | 4 (≈ 2.28 µM) | 8 (≈ 4.56 µM) | 2 (≈ 1.14 µM) | 32 (≈ 18.3 µM) | 4 (≈ 2.28 µM) | 4 (≈ 2.28 µM) | – | – | – | – | – | – | – | – | – | –
CCCCC(CC)C(=O)N[C@@H](CCCCN)C(=O)N[C@@H](CCCNC(=N)N)C(=O)N[C@H](C(=O)N[C@H](C(=O)N[C@@H](CCC(N)=O)C(=O)N[C@@H](CCCNC(=N)N)C(=O)N[C@H](C(=O)N[C@@H](CCCCN)C(=O)N[C@@H](CC(=O)O)C(=O)N[C@@H](Cc1ccccc1)C(=O)N[C@@H](CC(C)C)C(=O)N[C@@H](CCCNC(=N)N)C(N)=O)[C@@H](C)CC)C(C)C)[C@@H](C)CC (stereo partly drawn) [XIV, 2-Ethylhexanoic acid-KR12-NH2] (X3-KRIVQRIKDFLR-NH2) | 4 (≈ 2.36 µM) | 128 (≈ 75.4 µM) | 16 (≈ 9.43 µM) | 16 (≈ 9.43 µM) | 256 ^a µg/mL | 16 (≈ 9.43 µM) | 64 (≈ 37.7 µM) | 32 (≈ 18.9 µM) | 16 (≈ 9.43 µM) | 16 (≈ 9.43 µM) | 32 (≈ 18.9 µM) | – | – | – | – | – | – | – | – | – | –
CC[C@H](C)[C@H](NC(=O)[C@H](CCCNC(=N)N)NC(=O)[C@H](CCC(N)=O)NC(=O)[C@@H](NC(=O)[C@@H](NC(=O)[C@H](CCCNC(=N)N)NC(=O)[C@H](CCCCN)NC(=O)/C=C/c1ccccc1)[C@@H](C)CC)C(C)C)C(=O)N[C@@H](CCCCN)C(=O)N[C@@H](CC(=O)O)C(=O)N[C@@H](Cc1ccccc1)C(=O)N[C@@H](CC(C)C)C(=O)N[C@@H](CCCNC(=N)N)C(N)=O [XIX, trans-cinnamic acid-KR12-NH2] (X4-KRIVQRIKDFLR-NH2) | 4 (≈ 2.35 µM) | 32 (≈ 18.8 µM) | 16 (≈ 9.41 µM) | 16 (≈ 9.41 µM) | 128 ^a µg/mL | 8 (≈ 4.7 µM) | 16 (≈ 9.41 µM) | 4 (≈ 2.35 µM) | 16 (≈ 9.41 µM) | 8 (≈ 4.7 µM) | 16 (≈ 9.41 µM) | – | – | – | – | – | – | – | – | – | –
CC[C@H](C)[C@H](NC(=O)[C@H](CCCNC(=N)N)NC(=O)[C@H](CCC(N)=O)NC(=O)[C@@H](NC(=O)[C@@H](NC(=O)[C@H](CCCNC(=N)N)NC(=O)[C@H](CCCCN)NC(=O)c1ccccc1)[C@@H](C)CC)C(C)C)C(=O)N[C@@H](CCCCN)C(=O)N[C@@H](CC(=O)O)C(=O)N[C@@H](Cc1ccccc1)C(=O)N[C@@H](CC(C)C)C(=O)N[C@@H](CCCNC(=N)N)C(N)=O [XV, Benzoic acid-KR12-NH2] (Bz-KRIVQRIKDFLR-NH2) | – | – | – | – | – | – | – | – | – | – | – | 8 (≈ 4.78 µM) | 128 (≈ 76.4 µM) | 64 (≈ 38.2 µM) | 64 (≈ 38.2 µM) | ≥512 | 32 (≈ 19.1 µM) | 64 (≈ 38.2 µM) | 32 (≈ 19.1 µM) | 8 (≈ 4.78 µM) | MIC S. aureus 33591 [6, 10]: 64 µg/mL (≈ 38.2 µM); MIC S. aureus 12598 (S. aureus ATCC 12598; [8]): 32 µg/mL (≈ 19.1 µM)
CC[C@H](C)[C@H](NC(=O)[C@H](CCCNC(=N)N)NC(=O)[C@H](CCC(N)=O)NC(=O)[C@@H](NC(=O)[C@@H](NC(=O)[C@H](CCCNC(=N)N)NC(=O)[C@H](CCCCN)NC(=O)Cc1ccccc1)[C@@H](C)CC)C(C)C)C(=O)N[C@@H](CCCCN)C(=O)N[C@@H](CC(=O)O)C(=O)N[C@@H](Cc1ccccc1)C(=O)N[C@@H](CC(C)C)C(=O)N[C@@H](CCCNC(=N)N)C(N)=O [XVI, Phenylacetic acid-KR12-NH2] (PhAc-KRIVQRIKDFLR-NH2) | – | – | – | – | – | – | – | – | – | – | – | 8 (≈ 4.74 µM) | 128 (≈ 75.8 µM) | 64 (≈ 37.9 µM) | 64 (≈ 37.9 µM) | 256 | 32 (≈ 18.9 µM) | 128 (≈ 75.8 µM) | 32 (≈ 18.9 µM) | 16 (≈ 9.47 µM) | MIC S. aureus 33591 [6, 10]: 64 µg/mL (≈ 37.9 µM); MIC S. aureus 12598 (S. aureus ATCC 12598; [8]): 32 µg/mL (≈ 18.9 µM)
CC[C@H](C)[C@H](NC(=O)[C@H](CCCNC(=N)N)NC(=O)[C@H](CCC(N)=O)NC(=O)[C@@H](NC(=O)[C@@H](NC(=O)[C@H](CCCNC(=N)N)NC(=O)[C@H](CCCCN)NC(=O)CCc1ccccc1)[C@@H](C)CC)C(C)C)C(=O)N[C@@H](CCCCN)C(=O)N[C@@H](CC(=O)O)C(=O)N[C@@H](Cc1ccccc1)C(=O)N[C@@H](CC(C)C)C(=O)N[C@@H](CCCNC(=N)N)C(N)=O [XVII, 3-Phenylpropionic acid-KR12-NH2] (Hydrocinnamoyl-KRIVQRIKDFLR-NH2) | 4 (≈ 2.35 µM) | 64 (≈ 37.6 µM) | 32 (≈ 18.8 µM) | 64 (≈ 37.6 µM) | – | 32 (≈ 18.8 µM) | 16 (≈ 9.39 µM) | 16 (≈ 9.39 µM) | 8 (≈ 4.7 µM) | 32 (≈ 18.8 µM) | 16 (≈ 9.39 µM) | – | – | – | – | 256 | – | – | – | – | –
